# Assay results from US20110008461A1 (priority 2008, published 2011).
# “And” between values parts separate entries of the source, which are not always exact repeats. Equal values may be shown once. Where a name gives a salt, the structure may show the parent alone. Read-outs that look alike come from different tables or passages of the source. Marks after values point to notes of the source that are not given here.
# T1: PEPCK (Rattus norvegicus, UniProt P07379)
# T1 sequence (P07379 1-622): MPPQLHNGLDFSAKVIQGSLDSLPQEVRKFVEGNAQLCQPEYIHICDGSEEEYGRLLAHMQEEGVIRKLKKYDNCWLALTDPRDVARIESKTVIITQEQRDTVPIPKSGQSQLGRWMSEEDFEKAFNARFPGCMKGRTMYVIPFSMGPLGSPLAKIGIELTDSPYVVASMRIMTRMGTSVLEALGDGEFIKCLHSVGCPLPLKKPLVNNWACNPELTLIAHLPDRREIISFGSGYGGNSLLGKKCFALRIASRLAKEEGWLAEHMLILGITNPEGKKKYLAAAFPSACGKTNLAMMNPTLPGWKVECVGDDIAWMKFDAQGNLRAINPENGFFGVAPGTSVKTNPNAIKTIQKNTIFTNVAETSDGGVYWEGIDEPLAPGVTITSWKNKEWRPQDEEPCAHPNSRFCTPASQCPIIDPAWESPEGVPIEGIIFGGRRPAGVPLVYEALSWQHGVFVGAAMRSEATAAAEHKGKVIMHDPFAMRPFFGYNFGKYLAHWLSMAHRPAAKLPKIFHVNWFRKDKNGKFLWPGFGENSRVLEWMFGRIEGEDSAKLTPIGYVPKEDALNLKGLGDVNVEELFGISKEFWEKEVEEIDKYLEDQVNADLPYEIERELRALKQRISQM
# T2: Rat Liver Cytosolic Phosphoenolpyruvate Carboxykinase (Rattus norvegicus, UniProt P07379)
# T2 sequence (P07379 1-622): T1 sequence (P07379 1-622)
# T3: cytosolic PEPCK (Rattus norvegicus, UniProt P07379)
# T3 sequence (P07379 1-622): T1 sequence (P07379 1-622)
# T4: avian liver mPEPCK (Gallus gallus, UniProt P21642)
# T4 sequence (P21642 34-641): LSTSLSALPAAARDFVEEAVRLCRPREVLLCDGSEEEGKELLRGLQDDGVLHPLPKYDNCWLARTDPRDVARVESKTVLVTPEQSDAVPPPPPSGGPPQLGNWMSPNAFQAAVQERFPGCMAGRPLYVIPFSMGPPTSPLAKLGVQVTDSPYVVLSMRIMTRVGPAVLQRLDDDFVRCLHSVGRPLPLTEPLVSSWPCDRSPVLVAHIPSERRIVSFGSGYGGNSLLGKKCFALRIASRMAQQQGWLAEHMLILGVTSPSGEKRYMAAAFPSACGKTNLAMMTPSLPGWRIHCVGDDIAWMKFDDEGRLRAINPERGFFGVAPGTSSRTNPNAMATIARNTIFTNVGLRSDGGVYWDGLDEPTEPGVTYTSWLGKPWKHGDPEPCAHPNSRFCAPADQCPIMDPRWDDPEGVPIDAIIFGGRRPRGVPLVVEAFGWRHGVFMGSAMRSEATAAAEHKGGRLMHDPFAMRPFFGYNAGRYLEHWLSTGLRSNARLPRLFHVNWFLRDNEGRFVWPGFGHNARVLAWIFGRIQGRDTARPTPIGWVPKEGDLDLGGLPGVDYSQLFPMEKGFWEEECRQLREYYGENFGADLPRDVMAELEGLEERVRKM
# B1: Rat Liver Cytosolic Phosphoenolpyruvate Carboxykinase (Rattus norvegicus) (protein)
# chain: T1 sequence (P07379 1-622)
# How the values were obtained:
# PEPCK [1] = biological target: T1, PEPCK; assay: Kinetic analysis of CMMP inhibition of PEPCK against PEP (FIG. 5); type: biochemical
# Text: The ‘I’ values given in the legend are the concentrations of CMMP used in uM.
# This was originally supported by the inhibition of PEPCK by sulfoacetate. […] Based upon that work, we proposed a novel scaffold to be utilized in the development of molecules that bridge these two sub-sites with and in doing so would gain potency and, perhaps more importantly with a metabolic enzyme like PEPCK, specificity. This scaffold is Formulas C, E, and/or G and an example is CMMP. […] This molecule thereby gains both potency and specificity for PEPCK. […] The information obtained from FIGS. 4 and 5 indicate that derivatives of CMMP, as shown by the scaffolds of Formulas E and G, are likely to be similarly effective as CMMP.
# PEPCK [2] = conditions: cited from earlier work
# [3] = biological target: T2, Rat Liver Cytosolic Phosphoenolpyruvate Carboxykinase; assay: Continuous spectrophotometric PEPCK inhibition assay coupled to malate dehydrogenase (preliminary screen, inhibition patterns, Dixon plots); conditions: for Inhibition of PEPCK (in words): against PEP;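 on all read-outs here: PEPCK activity followed continuously via malate dehydrogenase coupling, where OAA reduction consumes NADH, seen as falling absorbance at 340 nm, run at 35 °C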
# Experimental: TES (pH 7.2), 7.5% glycerol (v:v), 0.2 mM EDTA.
# The inhibition of PEPCK by various compounds was evaluated using a continuous spectrophotometric assay in which the coupling enzyme, malate dehydrogenase, reduced OAA to malate concomitant with the oxidation of NADH to NAD^+. The decrease in absorbance at 340 nm was monitored using a Beckman DU-70 Spectrophotometer equipped with a temperature controller. The standard 1-mL reaction mixture for the production of OAA contained 56 mM HEPES-KOH buffer (pH 7.0), 1 mM IDP (or alternatively, 0.1 mM GDP), 23 U malate dehydrogenase (1 unit of malate dehydrogenase is defined as 1 mole malate produced/min/mg protein), 0.25 mM NADH, 2.3 mM MnCl2, and 48 mM NaHCO3. […] All assay components except PEPCK were preincubated in the cuvette for 3 min at 35° C., the standard assay temperature.
# The kinetic parameters for the inhibition studies were best fit to the equations for competitive inhibition (Eq. 1) and noncompetitive inhibition (Eq. 2), using the computer program and nomenclature of Cleland (Cleland, W. W. (1979) Statistical analysis of enzyme kinetic data. Methods Enzymol 63, 103-138).
# v=VA/[K(1+1/Kis)+A] (Eq. 1)
# v=VA/[K(1/Kis)+A(1+1/Kii)] (Eq. 2)
# The parameters are defined as follows: v is the initial velocity, V is the maximal rate of product formation in the absence of inhibitor, A is the concentration of the variable substrate, K is the apparent Michaelis constant for the varied substrate, and Kis and Kii are the inhibition constants.
# [4] = biological target: pyrophosphate-dependent phosphofructokinase; conditions: reported; cited from earlier work
# cytosolic PEPCK = biological target: T3, cytosolic PEPCK; assay: Kinetic data for MPA binding to the allosteric site of PEPCK; type: biochemical
# avian liver mPEPCK = biological target: T4, avian liver mPEPCK; conditions: with respect to OAA; cited from earlier work
# [5] = substrate: C=C(OP(=O)(O)O)C(=O)O; assay: cells, lysate or membranes named; conditions: other: substrate, determined under the same assay conditions
# [6] = analogue 3 mM, PEP 40 μM, preliminary screen, average of two PEPCK preparations
# [7] = from Dixon plots using two PEP concentrations
# [8] = analogue 6 mM, PEP 40 μM, preliminary screen, average of two PEPCK preparations
# [9] = analogue 1.5 mM, PEP 40 μM, preliminary screen, average of two PEPCK preparations
# [10] = PEP varied substrate, Cleland kinetics program, 35° C., pH 7.0
# [11] = read-out: Ki, intercept effect (Kii), noncompetitive, PEP varied substrate
# [12] = read-out: Ki, slope effect (Kis), noncompetitive, PEP varied substrate, Cleland kinetics program
molecule,measurement,setting,value
"O=C(O)CSc1cccnc1C(=O)O [CMMP, 3-carboxymethylmercaptopicolinic acid]",Ki,PEPCK [1],12 µM
same,Pattern of Inhibition,PEPCK [1]; against PEP,competitive
"O=C(O)C(=O)O [Compound 1, Oxalate]",Ki,PEPCK [2],5 to 89 µM
"O=C(O)CC(=O)O [Compound 2, Malonate]",% Activity Remaining,[3]; [6],102^c %
"O=C(O)CCC(=O)O [Compound 3, Succinate]",% Activity Remaining,[3]; [6],91^c %
same,Ki,[3]; [7],> 8000 µM
"O=C(O)CC(C(=O)O)S(=O)(=O)O (stereo not drawn) [Compound 4, Sulfosuccinate]",% Activity Remaining,[3],55^c %
same,Ki,[3],~3300 µM and 3300 µM
"O=C(O)/C=C\C(=O)O [Compound 5, Maleate]",% Activity Remaining,[3]; [8],52^e %
same,Ki,[3]; [7],~2000 µM
same,Ki,"[3]; from Dixon plots using two PEP concentrations, listed as Maleate (5)",2000 µM
"O=C(O)/C=C/C(=O)O [Compound 6, Fumarate]",Inhibition of PEPCK (in words),[3],did not inhibit
same,% Activity Remaining,[3]; [8],83^e %
"C=C(CC(=O)O)C(=O)O [Compound 7, Itaconate]",% Activity Remaining,[3]; [6],91^c %
"O=C(O)C1CCCC1C(=O)O (stereo not drawn) [Compound 8, 1,2-Cyclopentanedicarboxylate]",% Activity Remaining,[3],91^c %
"N[C@@H](CC(=O)O)C(=O)O [Compound 9, L-Aspartate]",% Activity Remaining,[3]; [6],112^c %
"O=C(O)CP(=O)(O)O [Compound 11, Phosphonoacetate]",Inhibition of PEPCK (in words),[3],noninhibitory
same,% Activity Remaining,[3]; [6],108^c %
"O=C(O)[C@@H](CO)OP(=O)(O)O [Compound 14, 2-D-Phosphoglycerate]",Inhibition of PEPCK (in words),[3],noninhibitory
same,% Activity Remaining,[3]; [6],110^c %
"C=C(CP(=O)(O)O)C(=O)O [Compound 15, 2-(Phosphonomethyl)acrylate]",Inhibition of PEPCK (in words),[3],noninhibitory
same,% Activity Remaining,[3]; [6],92^c %
"O=C(O)[C@H](O)[C@@H](O)[C@H](O)[C@H](O)COP(=O)(O)O [Compound 16, 6-phosphogluconate]",Inhibition of PEPCK (in words),[3],does not inhibit
same,% Activity Remaining,[3]; [6],117^c %
"O=C(O)CNCP(=O)(O)O [Compound 17, N-Phosphonomethylglycine]",% Activity Remaining,[3]; [6],104^c %
"NC(CP(=O)(O)O)C(=O)O (stereo not drawn) [Compound 18, 2-Amino-3-phosphonopropionate]",Inhibition of PEPCK (in words),[3],fails to inhibit
same,% Activity Remaining,[3]; [6],94^c %
"NC(CCP(=O)(O)O)C(=O)O (stereo not drawn) [Compound 19, 2-Amino-4-phosphonobutyrate]",% Activity Remaining,[3]; [6],104^c %
"NC(CCCP(=O)(O)O)C(=O)O (stereo not drawn) [Compound 20, 2-Amino-5-phosphonovalerate]",% Activity Remaining,[3],98^f %
"N[C@@H](COP(=O)(O)O)C(=O)O [Compound 21, Serine phosphate]",% Activity Remaining,[3]; [9],108^f %
"CC(C)(C(=O)O)S(=O)(=O)O [Compound 24, 2,2-Dimethylsulfoacetate]",Ki relative to sulfoacetate,[3],25 fold
same,Pattern of Inhibition,[3],Competitive
same,% Activity Remaining,[3]; [6],65^c %
same,Ki,[3]; pH 7,2100 ± 200 µM
"O=C(O)CCS(=O)(=O)O [Compound 25, 3-Sulfopropionate]",Pattern of Inhibition,[3]; PEP varied substrate,Competitive
same,Ki,[3]; [10],3400 ± 300 µM
same,Inhibition of PEPCK (in words),[3],poor inhibitor
same,% Activity Remaining,[3]; [6],69^c %
"N[C@@H](CS(=O)(=O)O)C(=O)O [Compound 26, Cysteic acid]",Inhibition of PEPCK (in words),[3],even less inhibitory
same,% Activity Remaining,[3]; [6],76^c %
"N[C@@H](CS(=O)O)C(=O)O [Compound 27, Cysteine sulfinic acid]",Inhibition of PEPCK (in words),[3],does not cause inhibition
same,% Activity Remaining,[3]; [6],105^c %
"O=P(O)(O)OP(=O)(O)O [Compound 28, Pyrophosphate]",% Activity Remaining,[3],22^f %
same,Ki,[3],172 µM
same,Ki,"[3]; read-out: Ki, intercept effect (Kii)",63 µM and 64 µM
same,Ki,"[3]; read-out: Ki, slope effect (Kis)",34 µM
"O=P(O)(O)CP(=O)(O)O [Compound 29, Methanediphosphonate]",IC50,[4],> 2000 µM
same,Pattern of Inhibition,[3]; PEP varied substrate,noncompetitive
same,Pattern of Inhibition,"[3]; PEP varied substrate, listed as Methanediphosphonate (29)",Noncompetitive
same,% Activity Remaining,[3]; [9],4^f %
same,Ki,[3]; [11],90 ± 5 µM
same,Ki,[3]; [12],32 ± 2 µM
"O=P(O)(O)CCP(=O)(O)O [Compound 30, 1,2-Ethanediphosphonate]",Pattern of Inhibition,[3]; PEP varied substrate,competitive
same,Ki,[3]; [10],5100 µM
same,Pattern of Inhibition,"[3]; PEP varied substrate, listed as 1,2-Ethanediphosphonate (30)",Competitive
same,% Activity Remaining,[3]; [8],96^e %
"O=S(=O)(O)CS(=O)(=O)O [Compound 31, Methanedisulfonate]",Pattern of Inhibition,[3]; PEP varied substrate,noncompetitive
same,Pattern of Inhibition,"[3]; PEP varied substrate, listed as Methanedisulfonate (31)",Noncompetitive
same,% Activity Remaining,[3]; [9],4^f %
same,Ki,[3]; [11],168 ± 25 µM
same,Ki,[3]; [12],27 ± 3 µM
"O=S(=O)(O)CCS(=O)(=O)O [Compound 32, 1,2-Ethanedisulfonate]",% Activity Remaining,[3]; [8],42^e %
same,Ki,[3]; [7],~3000 µM
same,Ki,"[3]; from Dixon plots using two PEP concentrations, listed as 1,2-Ethanedisulfonate (32)",3000 µM
"C[C@@H]1O[C@@H]1P(=O)(O)O [Compound 33, Phosphomycin]",% Activity Remaining,[3]; [6],108^c %
"O=[N+]([O-])c1ccc(OP(=O)(O)O)cc1 [Compound 35, p-Nitrophenylphosphate]",% Activity Remaining,[3]; [6],103^c %
"O=C(O)c1ncccc1S [MPA, 3-mercaptopicolinic acid]",Ki,cytosolic PEPCK; read-out: apparent affinity,~100 µM
same,Pattern of Inhibition,cytosolic PEPCK; versus nucleotide,competitive with nucleotide binding
O=C(O)C(=O)CS(=O)(=O)O [β-sulfopyruvate],Pattern of Inhibition,avian liver mPEPCK,competitive
Phenylphosphate [Compound 34],% Activity Remaining,[3]; [6],96^c %
Threonine phosphate [Compound 22],% Activity Remaining,[3]; [6],97^c %
B1,Km,[5],82 µM and 89 µM
